Values after ≈ are worked out from the molar mass of the structure shown. Where two headings read alike, the source gives them in different places.

The subject of data set [1] is M.tb strain H37Rv. As to the kind of experiment: MABA: inhibition of growth of M.tb H37Rv under aerobic (replicating) conditions. In kind it is cell-based. Particulars: for MIC90 / MIC: Mycobacterium tuberculosis; for anti-M.tb activity (in words): comparison with 1.
The test system of data set [2] is M.tb strain H37Rv. As to the kind of experiment: LORA: inhibition of growth of M.tb H37Rv under non-replicating conditions. In kind it is cell-based. To be noted: Mycobacterium tuberculosis. The method, then:
The compounds were evaluated for their inhibition of growth (measured as MIC90 values in µg/mL) against M.tb (strain H37Rv) under both replicating (MABA)[16] or non-replicating (LORA)[17] conditions. […] In a search for less lipophilic analogues, we prepared and evaluated compounds where this phenyl B-ring unit was replaced with different heterocycles of varying lipophilicity (Table 1).

In the next data set the target is CYP 3A4 (Homo sapiens, UniProt P08684). As to the kind of experiment: Inhibition of CYP 3A4. It counts as in vitro ADME. Particulars: 20 min exposure.
CYP 3A4, sequence (P08684 whole entry, species assumed): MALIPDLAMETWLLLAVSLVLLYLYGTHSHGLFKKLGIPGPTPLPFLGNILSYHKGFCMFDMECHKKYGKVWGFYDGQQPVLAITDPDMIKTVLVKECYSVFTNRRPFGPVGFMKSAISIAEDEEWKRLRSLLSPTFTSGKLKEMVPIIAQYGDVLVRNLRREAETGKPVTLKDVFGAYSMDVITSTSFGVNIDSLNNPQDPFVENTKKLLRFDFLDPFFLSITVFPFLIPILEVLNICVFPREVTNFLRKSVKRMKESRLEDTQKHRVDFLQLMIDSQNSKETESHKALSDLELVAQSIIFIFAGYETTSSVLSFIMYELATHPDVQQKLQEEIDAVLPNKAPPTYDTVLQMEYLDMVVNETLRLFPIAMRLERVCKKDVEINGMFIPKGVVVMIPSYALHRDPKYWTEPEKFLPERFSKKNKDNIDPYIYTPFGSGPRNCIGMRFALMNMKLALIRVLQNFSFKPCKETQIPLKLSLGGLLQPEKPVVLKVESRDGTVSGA
The conditions of data set [3]: human, microsomes.
The conditions of data set [4]: rat, in vivo.
A short description of a further data set: in vitro. Particulars: human, human liver microsomes.
Data set [5] in a line: Oral bioavailability in rats. To be noted: BioDuro LLC.

As to `COc1nc2ccc(Br)cc2cc1[C@@H](c1ccnc(OC)c1OC)[C@@](O)(CCN(C)C)c1cccc(C#N)c1` [Compound 49], the MIC90 against M.tb strain H37Rv [1] (H37RV) turned out to be 0.13 µg/mL (≈ 0.22 µM). This compound had an MIC90 in the data set with M.tb strain H37Rv [2] of 0.21 µg/mL (≈ 0.355 µM). For the same compound, at CYP 3A4, the IC50 was over 10 µM. This compound also registered a Clint in data set [3] of 19 µL/min/mg/protein. In data set [4], the “F(%) oral bioavailability” value is reported as 68% and the “oral bioavailability (in words)” value is reported as “comparable to that of 1”. The compound also came in with a half-life in “in vitro” of 37 min.

For the compound `COc1nc2ccc(Br)cc2cc1[C@@H](c1cc(C)c(C)s1)[C@@](O)(CCN(C)C)c1cccc(F)c1` [Compound 9], the “anti-M.tb activity (in words)” value in the data set with M.tb strain H37Rv [1] (M.tb H37Rv) is recorded as “comparable activity to 1”. Besides, the MIC90 in the data set on M.tb strain H37Rv [1] (H37RV) was 0.06 µg/mL (≈ 0.108 µM); with M.tb strain H37Rv [2] it was 0.11 µg/mL (≈ 0.197 µM). Further, the MIC in the data set with M.tb strain H37Rv [1] (H37RV, read-out: MIC90 MABA) fell in the range of 0.05 to 0.58 µg/mL. Besides, at CYP 3A4, the IC50 worked out at 10 µM. Further, the Clint in data set [3] was 12 µL/min/mg/protein. For the same compound, in data set [4], the “F(%) oral bioavailability” value is reported as 48%. Further, the half-life in “in vitro” came to 60 min.

For the compound `COc1nc2ccc(Br)cc2cc1[C@@H](c1ccc(N(C)C)nc1)[C@@](O)(CCN(C)C)c1cccc(F)c1` [Compound 36], the MIC90 against M.tb strain H37Rv [1] (H37RV) worked out at 0.08 µg/mL (≈ 0.141 µM); against M.tb strain H37Rv [2], 0.15 µg/mL (≈ 0.264 µM). Besides, the IC50 at CYP 3A4 was over 10 µM. The compound also had a Clint in data set [3] of 38 µL/min/mg/protein. Also, the “F(%) oral bioavailability” value in data set [4] was 45%. Besides, the half-life in “in vitro” is 18 min.

Turning to `COc1nc2ccc(Br)cc2cc1[C@@H](c1ccnc(OC)c1OC)[C@@](O)(CCN(C)C)c1cccc(OC(F)F)c1` [Compound 48], the “anti-M.tb activity (in words)” value in the data set with M.tb strain H37Rv [1] (M.tb H37Rv) is recorded as “retain the potency of 1”. The compound also gave an MIC90 against M.tb strain H37Rv [1] (H37RV) of under 0.02 µg/mL. At CYP 3A4, the IC50 is over 10 µM. Moreover, in data set [3], the Clint worked out at 11 µL/min/mg/protein. The half-life in the data set “in vitro” was found to be 61 min.

For `COc1cc([C@H](c2cc3cc(Br)ccc3nc2OC)[C@@](O)(CCN(C)C)c2cccc(F)c2)cnc1OC` [Compound 43], the figures for the MIC90 against M.tb strain H37Rv [1] (H37RV) and against M.tb strain H37Rv [2] were 0.47 µg/mL (≈ 0.804 µM) and 0.54 µg/mL (≈ 0.924 µM), respectively. The same compound yielded an IC50 against CYP 3A4 of over 10 µM. Also, the Clint in data set [3] turned out to be 36 µL/min/mg/protein. For the same compound, in data set [4], the “F(%) oral bioavailability” value is reported as 36%. The half-life in “in vitro” worked out at 19 min.

For `COc1nc2ccc(Br)cc2cc1[C@@H](c1ccnc(OC)c1OC)[C@@](O)(CCN(C)C)c1cccc(C)c1` [Compound 45], the MIC90 with M.tb strain H37Rv [1] (H37RV) was 0.02 µg/mL (≈ 0.0345 µM); in the data set with M.tb strain H37Rv [2], 0.04 µg/mL (≈ 0.0689 µM). The IC50 against CYP 3A4 is over 10 µM. Also, the Clint in data set [3] was determined as 13 µL/min/mg/protein. Further, in data set [4], the “F(%) oral bioavailability” value is reported as 40%. In the data set “in vitro”, this compound showed a half-life of 52 min.

`CCSc1ccc([C@H](c2cc3cc(Br)ccc3nc2OC)[C@@](O)(CCN(C)C)c2cccc(F)c2)cn1` [Compound 39]: the MIC90 against M.tb strain H37Rv [1] (H37RV) is 0.14 µg/mL (≈ 0.239 µM); with M.tb strain H37Rv [2], 0.15 µg/mL (≈ 0.257 µM). At CYP 3A4, this compound came in with an IC50 of 10 µM. This compound also registered a Clint in data set [3] of 11 µL/min/mg/protein. For the same compound, the “F(%) oral bioavailability” value in data set [4] came out at 30%. In “in vitro”, the half-life was found to be 64 min.

For the compound `COc1nc2ccc(Br)cc2cc1[C@@H](c1ccccc1)[C@@](O)(CCN(C)C)c1cccc2ccccc12` [Compound 1, bedaquiline, reference compound], the MIC90 in the data set with M.tb strain H37Rv [1] (H37RV) amounted to 0.05 µg/mL (≈ 0.09 µM); in the data set on M.tb strain H37Rv [2], 0.08 µg/mL (≈ 0.144 µM). In addition, the MIC turned out to be 0.05 µM in the data set with M.tb strain H37Rv [1] (M.tb H37Rv, replicating, read-out: MIC (MABA)) and 0.08 µM (≈ 0.0444 µg/mL) in the data set with M.tb strain H37Rv [2] (read-out: MIC (LORA)). In addition, in data set [5], the “F(%) oral bioavailability” value was determined as 70%.

Take `COc1nc2ccc(Br)cc2cc1[C@@H](c1cccnc1N(C)C)[C@@](O)(CCN(C)C)c1cccc(F)c1` [Compound 35]: the MIC90 with M.tb strain H37Rv [1] (H37RV) worked out at 0.18 µg/mL (≈ 0.317 µM); in the data set on M.tb strain H37Rv [2], 0.2 µg/mL (≈ 0.352 µM). Further, the IC50 on CYP 3A4 is over 50 µM. This compound had a Clint in data set [3] of 45 µL/min/mg/protein. Moreover, the half-life in “in vitro” is 15 min.

With `COc1nc2ccc(Br)cc2cc1[C@@H](c1cncc(C)c1)[C@@](O)(CCN(C)C)c1cccc(F)c1` [Compound 42], the MIC90 in the data set on M.tb strain H37Rv [1] (H37RV) turned out to be 0.53 µg/mL (≈ 0.984 µM); in the data set with M.tb strain H37Rv [2] it was 0.97 µg/mL (≈ 1.8 µM). Further, at CYP 3A4, the IC50 stood at 4.6 µM. In addition, the Clint in data set [3] is given as 56 µL/min/mg/protein. Moreover, the “F(%) oral bioavailability” value in data set [4] turned out to be 24%. In addition, the half-life in “in vitro” is 12 min.

Values taken from publication PMC5696560 (Bioorganic & Medicinal Chemistry Letters, 2017).
